# Literature values as cited in patent publication US6358944B1, “Methods and compositions for treating generalized anxiety disorder” (Vela Pharmaceuticals, Inc., priority 1999, dated 2002).
compound,measurement,setting,value
"CN(C)CCC=C1c2ccccc2C=Cc2ccccc21 [cyclobenzaprine, 3-(5H-Dibenzo[a,d]cyclohepten-5-ylidene)-N,N-dimethyl-1-propanamine]",other less common side effects,cyclobenzaprine treatment,"nausea, tiredness, constipation, blurred vision, nervousness, confusion, abdominal pain and discomfort"
same,principal side effects,cyclobenzaprine treatment,"drowsiness, dry mouth or tongue, dizziness and bad taste"
same,organ toxicity,cyclobenzaprine-treated patients at recommended doses,No indications of organ toxicity were found
same,toxic effects after overdose,three individuals who ingested between 260 to 900 mg,Toxic effects were reported
